Test results reported in patent US20240158418A1 (C4 Therapeutics, Inc., priority 2021, published 2024).
Like-named read-outs stand apart in the source and are kept apart here.

How the values were obtained:
Type in all cases: cell-based
EGFR L858R-T790M = biological target: T1, EGFR L858R-T790M (Homo sapiens, UniProt P00533, L858R/T790M); test: EGFR degradation, Total EGFR (L858R-specific) HTRF, NCI-H1975; settings: NCI-H1975 cells, 6 hours, Total EGFR HTRF, read-out: H1975 EGFR DC50
T1 construct: NCI-H1975 (harboring EGFR heterozygous L858R-T790M mutations); host or cells: NCI-H1975
Summary of the method: (§1)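 HTRF read-outs: pY1068 phospho-EGFR for IC50; total EGFR (pan-EGFR in A431, L858R-specific in mutant lines) for DC50. Compounds were titrated 11 points, half-log, from 10 μM in duplicate onto cells in 10% FBS RPMI, incubated 6 h at 37°C.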

EGFR L858R = EGFR L858R (Homo sapiens, UniProt P00533, L858R); test: EGFR degradation, Total EGFR (L858R-specific) HTRF, NCI-H3255; parameters: NCI-H3255 (harboring EGFR heterozygous L858R mutation); host or cells: NCI-H3255; settings: NCI-H3255 cells, 6 hours, Total EGFR HTRF, read-out: H3255 EGFR DC50
Summary of the method: as §1

EGFR L858R-T790M-C797S = biological target: T2, EGFR L858R-T790M-C797S (Homo sapiens, UniProt P00533, C797S/L858R/T790M); test: EGFR degradation, Total EGFR (L858R-specific) HTRF, NCI-H1975+CS; settings: 6 hours, Total EGFR HTRF
T2 construct: generated using CRISPR technology to introduce the additional C797S mutation by Horizon Discovery; host or cells: NCI-H1975+CS (CRISPR knock-in of C797S)
From the text: NCI-H1975 (harboring EGFR heterozygous L858R-T790M mutations) and NCI-H3255 (harboring EGFR heterozygous L858R mutation) were purchased from ATCC and NCI, respectively. NCI-H1975+CS (harboring EGFR heterozygous L858R-T790M-C797S mutations) was generated using CRISPR technology to introduce the additional C797S mutation by Horizon Discovery. A431 (harboring EGFR wildtype) was purchased from ATCC. RPMI 1640 no-phenol red medium and fetal bovine serum (FBS) were purchased from Gibco (Grand Island, NY, USA). Cell culture flasks and 384-well microplates were acquired from VWR (Radnor, PA, USA). Phosphorylated (pY1068) EGFR and Total EGFR (using L858R-specific detection antibody and pan-EGFR antibody for EGFR mutant cell lines and EGFR wild-type cell lines, respectively) HTRF assay kits were purchased from Cisbio (Bedford, MA, USA).
Degradation of EGFR protein containing L858R mutation or wild-type was determined based on quantification of FRET signal using a Total EGFR (L858R-specific or pan-EGFR detecting) HTRF assay kit. Phospho-EGFR (pEGFR) inhibition was determined based on quantification of FRET signal using a pY1068 EGFR HTRF assay kit. In separate assay plates, test compounds were added to the 384-well plate from a top concentration of 10 μM with 11 points, half log titration in duplicates. For each assay, 12.5 uL of cells suspended in assay media (RPMI 1640 no-phenol red medium+10% FBS) at cell densities indicated for each cell line in Table 8 below were dispensed using a multi-channel pipette to 384-well low volume white HTRF microplates containing a duplicate concentration range of test compounds and DMSO controls. The plates were kept at 37° C. with 5% CO2 for 6 hours and then incubated with either phospho EGFR or Total EGFR HTRF detection antibodies according to the cell line and EGFR mutant being assayed. Cells treated in the absence of the test compound were the negative control. Positive control was set by wells containing all reagents but no cells. FRET signal was acquired on EnVision™ Multilabel Reader (PerkinElmer, Santa Clara, CA, USA). Compound concentration that achieves 50% degradation and inhibition was reported as DC50 and IC50, respectively.

[1] = Table 9A, NCI-H1975+CS cells, read-out: H1975+ CS EGFR DC50
[2] = Table 9B, NCI-H1975 C797S clone, read-out: H1975 C797S clone EGFR DC50

EGFR L858R, sequence (P00533 25-1210 L858R): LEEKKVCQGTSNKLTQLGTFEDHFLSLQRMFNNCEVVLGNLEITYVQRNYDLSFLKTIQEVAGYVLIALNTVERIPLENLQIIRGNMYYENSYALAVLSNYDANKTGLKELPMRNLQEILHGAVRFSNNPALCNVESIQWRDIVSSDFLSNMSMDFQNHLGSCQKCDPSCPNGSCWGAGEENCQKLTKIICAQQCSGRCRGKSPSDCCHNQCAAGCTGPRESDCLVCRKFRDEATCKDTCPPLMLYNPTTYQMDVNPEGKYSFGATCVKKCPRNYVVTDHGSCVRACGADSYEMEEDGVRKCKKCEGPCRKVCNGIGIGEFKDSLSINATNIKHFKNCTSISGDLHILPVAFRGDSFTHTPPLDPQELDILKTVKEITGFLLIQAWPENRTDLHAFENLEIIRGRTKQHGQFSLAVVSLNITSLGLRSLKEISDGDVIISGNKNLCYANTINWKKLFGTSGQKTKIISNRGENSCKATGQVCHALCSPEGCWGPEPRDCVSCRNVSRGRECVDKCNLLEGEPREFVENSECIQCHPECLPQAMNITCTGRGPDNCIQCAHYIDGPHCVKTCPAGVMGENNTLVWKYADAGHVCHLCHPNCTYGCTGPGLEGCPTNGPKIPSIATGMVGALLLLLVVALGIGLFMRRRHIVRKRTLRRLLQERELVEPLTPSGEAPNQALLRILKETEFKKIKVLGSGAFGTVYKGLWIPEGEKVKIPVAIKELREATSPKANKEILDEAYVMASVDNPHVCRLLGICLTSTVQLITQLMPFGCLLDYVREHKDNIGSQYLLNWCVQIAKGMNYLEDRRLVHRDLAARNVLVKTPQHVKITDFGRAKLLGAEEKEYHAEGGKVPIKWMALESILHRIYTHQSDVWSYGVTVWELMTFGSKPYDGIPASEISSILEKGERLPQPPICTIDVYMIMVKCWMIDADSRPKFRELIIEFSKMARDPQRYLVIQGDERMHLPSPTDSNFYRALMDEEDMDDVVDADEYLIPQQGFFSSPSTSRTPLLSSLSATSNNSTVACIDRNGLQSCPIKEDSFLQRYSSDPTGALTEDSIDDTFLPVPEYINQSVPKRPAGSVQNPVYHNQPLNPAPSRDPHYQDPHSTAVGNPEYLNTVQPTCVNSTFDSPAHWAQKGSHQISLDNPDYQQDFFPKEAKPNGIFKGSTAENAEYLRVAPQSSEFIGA
T1 sequence (P00533 25-1210 T790M/L858R): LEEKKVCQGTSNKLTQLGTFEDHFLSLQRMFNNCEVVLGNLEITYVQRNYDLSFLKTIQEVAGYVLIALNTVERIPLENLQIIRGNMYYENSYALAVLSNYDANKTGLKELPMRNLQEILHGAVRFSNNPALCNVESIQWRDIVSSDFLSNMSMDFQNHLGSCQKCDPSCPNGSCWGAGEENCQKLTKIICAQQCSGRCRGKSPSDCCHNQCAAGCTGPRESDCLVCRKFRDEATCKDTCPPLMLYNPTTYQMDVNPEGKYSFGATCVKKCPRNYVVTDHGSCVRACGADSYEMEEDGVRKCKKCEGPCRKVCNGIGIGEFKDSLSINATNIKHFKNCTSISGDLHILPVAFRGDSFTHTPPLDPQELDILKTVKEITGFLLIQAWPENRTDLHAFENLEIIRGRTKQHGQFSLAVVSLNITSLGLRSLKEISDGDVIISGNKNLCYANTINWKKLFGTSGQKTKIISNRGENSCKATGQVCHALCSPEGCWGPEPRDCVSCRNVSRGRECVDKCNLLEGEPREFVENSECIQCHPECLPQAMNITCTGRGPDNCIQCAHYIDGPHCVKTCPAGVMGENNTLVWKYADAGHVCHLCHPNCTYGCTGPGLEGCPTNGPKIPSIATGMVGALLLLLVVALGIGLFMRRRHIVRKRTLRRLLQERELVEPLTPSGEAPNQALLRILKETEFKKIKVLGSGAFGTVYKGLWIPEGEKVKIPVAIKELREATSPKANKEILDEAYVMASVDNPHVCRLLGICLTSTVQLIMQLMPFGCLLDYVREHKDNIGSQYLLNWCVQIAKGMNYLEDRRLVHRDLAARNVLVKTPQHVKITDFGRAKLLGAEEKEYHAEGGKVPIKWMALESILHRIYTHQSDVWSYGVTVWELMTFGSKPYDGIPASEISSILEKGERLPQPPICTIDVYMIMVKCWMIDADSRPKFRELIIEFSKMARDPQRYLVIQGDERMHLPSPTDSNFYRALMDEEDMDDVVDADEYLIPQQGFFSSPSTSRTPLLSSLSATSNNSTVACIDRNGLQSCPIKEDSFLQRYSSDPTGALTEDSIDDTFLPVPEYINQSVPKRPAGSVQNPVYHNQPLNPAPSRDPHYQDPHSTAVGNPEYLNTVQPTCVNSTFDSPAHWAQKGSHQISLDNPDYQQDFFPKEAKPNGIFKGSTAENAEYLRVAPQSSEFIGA
T2 sequence (P00533 25-1210 T790M/C797S/L858R): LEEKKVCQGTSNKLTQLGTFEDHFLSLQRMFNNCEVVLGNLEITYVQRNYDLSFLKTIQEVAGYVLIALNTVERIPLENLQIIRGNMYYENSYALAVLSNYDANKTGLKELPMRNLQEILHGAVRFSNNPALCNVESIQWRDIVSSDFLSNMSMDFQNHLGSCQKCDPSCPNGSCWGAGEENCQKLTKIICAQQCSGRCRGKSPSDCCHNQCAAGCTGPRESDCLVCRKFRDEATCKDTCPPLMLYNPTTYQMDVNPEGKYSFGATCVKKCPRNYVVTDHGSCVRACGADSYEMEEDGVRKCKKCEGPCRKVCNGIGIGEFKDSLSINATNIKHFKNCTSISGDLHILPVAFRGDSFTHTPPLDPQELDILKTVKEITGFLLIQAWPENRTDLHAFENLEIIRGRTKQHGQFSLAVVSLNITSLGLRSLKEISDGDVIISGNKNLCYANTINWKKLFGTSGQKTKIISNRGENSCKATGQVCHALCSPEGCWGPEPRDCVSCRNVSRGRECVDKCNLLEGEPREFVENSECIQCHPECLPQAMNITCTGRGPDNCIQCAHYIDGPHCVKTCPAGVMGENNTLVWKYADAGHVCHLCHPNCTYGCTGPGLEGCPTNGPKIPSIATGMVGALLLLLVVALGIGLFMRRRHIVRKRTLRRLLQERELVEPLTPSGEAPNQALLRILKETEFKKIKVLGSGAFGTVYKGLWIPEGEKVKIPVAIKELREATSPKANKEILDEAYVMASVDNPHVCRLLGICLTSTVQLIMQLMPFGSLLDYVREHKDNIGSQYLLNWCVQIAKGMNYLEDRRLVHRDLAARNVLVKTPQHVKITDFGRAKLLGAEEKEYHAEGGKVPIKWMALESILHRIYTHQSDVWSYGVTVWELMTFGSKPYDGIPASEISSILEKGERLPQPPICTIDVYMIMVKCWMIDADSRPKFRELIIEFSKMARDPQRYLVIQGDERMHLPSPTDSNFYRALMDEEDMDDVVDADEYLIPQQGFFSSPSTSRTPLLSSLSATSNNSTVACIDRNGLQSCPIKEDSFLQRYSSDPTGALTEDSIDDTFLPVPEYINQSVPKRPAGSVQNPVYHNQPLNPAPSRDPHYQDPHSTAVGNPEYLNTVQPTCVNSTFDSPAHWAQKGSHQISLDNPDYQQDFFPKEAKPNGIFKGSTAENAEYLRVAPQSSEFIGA

DC50 (EGFR L858R-T790M; Table 9A)	DC50 (EGFR L858R; Table 9A)	DC50 (EGFR L858R-T790M-C797S; [1])	DC50 (EGFR L858R-T790M; Table 9B)	DC50 (EGFR L858R; Table 9B)	DC50 (EGFR L858R-T790M-C797S; [2])	Compound
			< 50 nM	< 50 nM	< 50 nM	O=C1CC[C@@H](Nc2ccc(N3CCC(O)(CC(=O)N4CC5(C4)CN(c4ccc(-c6cc(F)c7c(c6)C(=O)N(C(C(=O)Nc6nccs6)c6ncn8c6CCC8)C7)cc4)C5)CC3)c(F)c2)C(=O)N1 (stereo partly drawn) [Compound 98, 2-(6,7-dihydro-5H-pyrrolo[1,2-c]imidazol-1-yl)-2-[6-[4-[2-[2-[1-[4-[[(3R)-2,6-dioxo-3-piperidyl]-amino]-2-fluoro-phenyl]-4-hydroxy-4-piperidyl]acetyl]-2,6-diazaspiro[3.3]heptan-6-yl]phenyl]-4-fluoro-1-oxo-isoindolin-2-yl]-N-thiazol-2-yl-acetamide]
			< 50 nM		< 50 nM	Cn1nc(N2CCC(=O)NC2=O)c2ccc(C3CCN(CC(=O)N4CC5(C4)CN(c4ccc(-c6cc(F)c7c(c6)C(=O)N(C(C(=O)Nc6nccs6)c6ncn8c6CCC8)C7)cn4)C5)CC3(F)F)cc21 (stereo not drawn) [Compound 87, 2-(6,7-dihydro-5H-pyrrolo[1,2-c]imidazol-1-yl)-2-(6-(6-(6-(2-(4-(3-(2,4-dioxotetrahydropyrimidin-1(2H)-yl)-1-methyl-1H-indazol-6-yl)-3,3-difluoropiperidin-1-yl)acetyl)-2,6-diazaspiro[3.3]heptan-2-yl)pyridin-3-yl)-4-fluoro-1-oxoisoindolin-2-yl)-N-(thiazol-2-yl)acetamide]
			< 50 nM		< 50 nM	O=C1CC[C@H](Nc2ccc(C3CCN(CC(=O)N4CC5(C4)CN(c4ccc(-c6ccc7cn(C(C(=O)Nc8nccs8)c8ncn9c8CCC9)nc7c6F)cn4)C5)CC3)c(F)c2)C(=O)N1 (stereo partly drawn) [Compound 69, 2-(6,7-dihydro-5H-pyrrolo[1,2-c]imidazol-1-yl)-2-[6-[6-[2-[2-[4-[4-[[(3S)-2,6-dioxo-3-piperidyl]amino]-2-fluoro-phenyl]-1-piperidyl]acetyl]-2,6-diazaspiro[3.3]heptan-6-yl]-3-pyridyl]-7-fluoro-indazol-2-yl]-N-thiazol-2-yl-acetamide]
			< 50 nM		< 50 nM	Cn1nc(N2CCC(=O)NC2=O)c2ccc(C3CCN(CC(=O)N4CCC(NC(=O)c5ccc(C#Cc6cc(F)c7c(c6)C(=O)N(C(C(=O)Nc6nccs6)c6ncn8c6CCC8)C7)cn5)CC4)CC3(F)F)cc21 (stereo not drawn) [Compound 88, 5-[2-[2-[1-(6,7-dihydro-5H-pyrrolo[1,2-c]imidazol-1-yl)-2-oxo-2-(thiazol-2-ylamino)ethyl]-7-fluoro-3-oxo-isoindolin-5-yl]ethynyl]-N-[1-[2-[4-[3-(2,4-dioxohexahydropyrimidin-1-yl)-1-methyl-indazol-6-yl]-3,3-difluoro-1-piperidyl]acetyl]-4-piperidyl]pyridine-2-carboxamide]

More lines, now with the values behind:

Compound	DC50 (EGFR L858R-T790M; Table 9A)	DC50 (EGFR L858R; Table 9A)	DC50 (EGFR L858R-T790M-C797S; [1])	DC50 (EGFR L858R-T790M; Table 9B)	DC50 (EGFR L858R; Table 9B)	DC50 (EGFR L858R-T790M-C797S; [2])
O=C1CCC(Nc2ccc(C3CCN(CC(=O)N4CCC(Oc5ccc(-c6cc(F)c7c(c6)C(=O)N(C(C(=O)Nc6nccs6)c6ncn8c6CCC8)C7)cc5)CC4)CC3)c(F)c2)C(=O)N1 (stereo not drawn) [Compound 35, 2-(6,7-dihydro-5H-pyrrolo[1,2-c]imidazol-1-yl)-2-(6-(4-((1-(2-(4-(4-((2,6-dioxopiperidin-3-yl)amino)-2-fluorophenyl)piperidin-1-yl)acetyl)piperidin-4-yl)oxy)phenyl)-4-fluoro-1-oxoisoindolin-2-yl)-N-(thiazol-2-yl)acetamide]	< 50 nM	< 50 nM	< 50 nM			
O=C1CC[C@H](Nc2ccc(C3CCN(CC(=O)N4CC5(C4)CN(c4ccc(-c6cc(F)c7c(c6)C(=O)N(C(C(=O)Nc6nccs6)c6ncn8c6CCC8)C7)cc4)C5)CC3)c(F)c2)C(=O)N1 (stereo partly drawn) [Compound 48, 2-(6,7-dihydro-5H-pyrrolo[1,2-c]imidazol-1-yl)-2-[6-[4-[2-[2-[4-[4-[[(3S)-2,6-dioxo-3-piperidyl]amino]-2-fluoro-phenyl]-1-piperidyl]acetyl]-2,6-diazaspiro[3.3]heptan-6-yl]phenyl]-4-fluoro-1-oxo-isoindolin-2-yl]-N-thiazol-2-yl-acetamide]	< 50 nM	< 50 nM	< 50 nM			
O=C1CC[C@H](Nc2ccc(C3CCN(CC(=O)N4CCN(c5ccc(-c6cc(F)c7c(c6)C(=O)N(C(C(=O)Nc6nccs6)c6ncn8c6CCC8)C7)cc5)CC4)CC3)cc2)C(=O)N1 (stereo partly drawn) [Compound 56, 2-(6,7-dihydro-5H-pyrrolo[1,2-c]imidazol-1-yl)-2-[6-[4-[4-[2-[4-[4-[[(3S)-2,6-dioxo-3-piperidyl]amino]phenyl]-1-piperidyl]acetyl]piperazin-1-yl]phenyl]-4-fluoro-1-oxo-isoindolin-2-yl]-N-thiazol-2-yl-acetamide]	< 50 nM	< 50 nM	< 50 nM			
O=C1CC[C@H](Nc2ccc(C3CCN(CC(=O)N4CCC(c5ccc(-c6cc(F)c7c(c6)C(=O)N(C(C(=O)Nc6nccs6)c6ncn8c6CCC8)C7)cc5)CC4)CC3)c(F)c2)C(=O)N1 (stereo partly drawn) [Compound 24, 2-(6,7-dihydro-5H-pyrrolo[1,2-c]imidazol-1-yl)-2-(6-(4-(1-(2-(4-(4-(((S)-2,6-dioxopiperidin-3-yl)amino)-2-fluorophenyl)piperidin-1-yl)acetyl)piperidin-4-yl)phenyl)-4-fluoro-1-oxoisoindolin-2-yl)-N-(thiazol-2-yl)acetamide]	50 to 150 nM	< 50 nM	< 50 nM			
N#Cc1cc(NC2CCC(=O)NC2=O)ccc1C1CCN(CC(=O)N2CCC(Oc3ccc(-c4cc(F)c5c(c4)C(=O)N(C(C(=O)Nc4nccs4)c4ncn6c4CCC6)C5)cc3)CC2)CC1 (stereo not drawn) [Compound 37]	< 50 nM	< 50 nM	< 50 nM			
O=C1CCC(Nc2ccc(C3CCN(CC(=O)N4CCC(c5ccc(-c6cc(F)c7c(c6)C(=O)N(C(C(=O)Nc6nccs6)c6ncn8c6CCC8)C7)cc5)CC4)CC3)cc2)C(=O)N1 (stereo not drawn) [Compound 21, 2-(6,7-dihydro-5H-pyrrolo[1,2-c]imidazol-1-yl)-2-(6-(4-(1-(2-(4-(4-((2,6-dioxopiperidin-3-yl)amino)phenyl)piperidin-1-yl)acetyl)piperidin-4-yl)phenyl)-4-fluoro-1-oxoisoindolin-2-yl)-N-(thiazol-2-yl)acetamide]	< 50 nM	< 50 nM	< 50 nM			
O=C1CC[C@H](Nc2ccc(C3CCN(CC(=O)N4CCC(Oc5ccc(-c6cc(F)c7c(c6)C(=O)N(C(C(=O)Nc6nccs6)c6ncn8c6CCC8)C7)cc5)CC4)CC3)cc2)C(=O)N1 (stereo partly drawn) [Compound 32, 2-(6,7-dihydro-5H-pyrrolo[1,2-c]imidazol-1-yl)-2-[6-[4-[[1-[2-[4-[4-[[(3S)-2,6-dioxo-3-piperidyl]amino]phenyl]-1-piperidyl]acetyl]-4-piperidyl]oxy]phenyl]-4-fluoro-1-oxo-isoindolin-2-yl]-N-thiazol-2-yl-acetamide]	< 50 nM	< 50 nM	< 50 nM			
O=C1CCC(Nc2ccc(C3CCN(CC(=O)N4CCN(c5ccc(-c6cc(F)c7c(c6)C(=O)N(C(C(=O)Nc6nccs6)c6ncn8c6C[C@@H](F)C8)C7)cc5)CC4)CC3)cc2)C(=O)N1 (mixture of isomers) [Compound 43, (2RS)-2-[6-[4-[4-[2-[4-[4-[[(3RS)-2,6-Dioxo-3-piperidyl]amino]phenyl]-1-piperidyl]acetyl]piperazin-1-yl]phenyl]-4-fluoro-1-oxo-isoindolin-2-yl]-2-[(6R)-6-fluoro-6,7-dihydro-5H-pyrrolo[1,2-c]imidazol-1-yl]-N-thiazol-2-yl-acetamide]	< 50 nM	< 50 nM	< 50 nM			
